Experimental data taken from PubChem BioAssay (NCI).
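These data come from cells grown in 96-well plates and exposed to compound for 48 hours at five concentrations. Here, GI50 denotes the concentration required for 50% inhibition of growth. At the TGI there is no net growth.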

Tests used:
Test in all cases: DTP human tumour cell line panel, 48 h
HOP-62 NSCLC = tested on: HOP-62 NSCLC
TK-10 renal = tested on: TK-10 renal
A549 NSCLC = tested on: A549 NSCLC
HT29 colon = tested on: HT29 colon
NCI-H226 lung = tested on: NCI-H226 lung
NCI-H23 lung = tested on: NCI-H23 lung
OVCAR-8 ovarian = tested on: OVCAR-8 ovarian
HL-60(TB) leukemia = tested on: HL-60(TB) leukemia
SNB-75 CNS = tested on: SNB-75 CNS
IGROV1 ovarian = tested on: IGROV1 ovarian
MDA-MB-231 breast = tested on: MDA-MB-231 breast
SK-OV-3 ovarian = tested on: SK-OV-3 ovarian
MDA-MB-435 = tested on: MDA-MB-435
MOLT-4 leukemia = tested on: MOLT-4 leukemia
OVCAR-4 ovarian = tested on: OVCAR-4 ovarian
CCRF-CEM leukemia = tested on: CCRF-CEM leukemia
MCF7 breast = tested on: MCF7 breast
SF-295 CNS = tested on: SF-295 CNS
RPMI-8226 leukemia = tested on: RPMI-8226 leukemia
SN12C renal = tested on: SN12C renal
T-47D breast = tested on: T-47D breast
OVCAR-5 ovarian = tested on: OVCAR-5 ovarian
HOP-92 NSCLC = tested on: HOP-92 NSCLC
UO-31 renal = tested on: UO-31 renal
NCI/ADR-RES ovarian = tested on: NCI/ADR-RES ovarian
PC-3 prostate = tested on: PC-3 prostate
786-0 renal = tested on: 786-0 renal
HCT-15 colon = tested on: HCT-15 colon
UACC-62 melanoma = tested on: UACC-62 melanoma
SF-268 CNS = tested on: SF-268 CNS
KM12 colon = tested on: KM12 colon
COLO 205 colon = tested on: COLO 205 colon
SK-MEL-28 melanoma = tested on: SK-MEL-28 melanoma
SW-620 colon = tested on: SW-620 colon
M14 melanoma = tested on: M14 melanoma
U251 CNS = tested on: U251 CNS
EKVX NSCLC = tested on: EKVX NSCLC
OVCAR-3 ovarian = tested on: OVCAR-3 ovarian
HCT-116 colon = tested on: HCT-116 colon
NCI-H460 lung = tested on: NCI-H460 lung
MALME-3M melanoma = tested on: MALME-3M melanoma
SK-MEL-5 melanoma = tested on: SK-MEL-5 melanoma
ACHN renal = tested on: ACHN renal
BT-549 breast = tested on: BT-549 breast
HCC-2998 colon = tested on: HCC-2998 colon
K-562 leukemia = tested on: K-562 leukemia
CAKI-1 renal = tested on: CAKI-1 renal
LOX IMVI melanoma = tested on: LOX IMVI melanoma
UACC-257 melanoma = tested on: UACC-257 melanoma
SR leukemia = tested on: SR leukemia
SF-539 CNS = tested on: SF-539 CNS
A498 renal = tested on: A498 renal
SK-MEL-2 melanoma = tested on: SK-MEL-2 melanoma
SNB-19 CNS = tested on: SNB-19 CNS
HS 578T breast = tested on: HS 578T breast
DU-145 prostate = tested on: DU-145 prostate
RXF 393 renal = tested on: RXF 393 renal

Which results are given for `CC(C)(C)c1ccc(C(=O)Nc2sc3c(c2C(N)=O)CCC(O)C3)cc1` (centres undefined)?
GI50 (HOP-62 NSCLC): 1.42 µM; TGI (HOP-62 NSCLC): 8.65 µM; GI50 (TK-10 renal): 4.37 µM; TGI (TK-10 renal): 18.4 µM; GI50 (A549 NSCLC): 2.23 µM; TGI (A549 NSCLC): 33 µM; GI50 (HT29 colon): 0.569 µM; TGI (HT29 colon): 3.23 µM; GI50 (NCI-H226 lung): 2.96 µM; TGI (NCI-H226 lung): 27 µM; GI50 (NCI-H23 lung): 4.16 µM; TGI (NCI-H23 lung): 22.8 µM; GI50 (OVCAR-8 ovarian): 2.64 µM; TGI (OVCAR-8 ovarian): 87.4 µM; GI50 (HL-60(TB) leukemia): 1.77 µM; TGI (HL-60(TB) leukemia): 15 µM; GI50 (SNB-75 CNS): 3.18 µM; TGI (SNB-75 CNS): 15.1 µM; GI50 (IGROV1 ovarian): 3.24 µM; TGI (IGROV1 ovarian): 18.5 µM; GI50 (MDA-MB-231 breast): 2.17 µM; TGI (MDA-MB-231 breast): 5.32 µM; GI50 (SK-OV-3 ovarian): 3.44 µM; TGI (SK-OV-3 ovarian): 19.2 µM; GI50 (MDA-MB-435): 0.422 µM; TGI (MDA-MB-435): 15.6 µM; GI50 (MOLT-4 leukemia): 1.65 µM; TGI (MOLT-4 leukemia): 11.5 µM; GI50 (OVCAR-4 ovarian): 0.747 µM; TGI (OVCAR-4 ovarian): 17.1 µM; GI50 (CCRF-CEM leukemia): 2.01 µM; TGI (CCRF-CEM leukemia): 10.6 µM; GI50 (MCF7 breast): 0.753 µM; TGI (MCF7 breast): 10.5 µM; GI50 (SF-295 CNS): 0.582 µM; TGI (SF-295 CNS): 2.54 µM; GI50 (RPMI-8226 leukemia): 2 µM; TGI (RPMI-8226 leukemia): 5.42 µM; GI50 (SN12C renal): 6.33 µM; TGI (SN12C renal): 22.2 µM; GI50 (T-47D breast): 0.625 µM; TGI (T-47D breast): 14.8 µM; GI50 (OVCAR-5 ovarian): 3.14 µM; TGI (OVCAR-5 ovarian): 17.4 µM; GI50 (HOP-92 NSCLC): 2.74 µM; TGI (HOP-92 NSCLC): 16.5 µM; GI50 (UO-31 renal): 2.03 µM; TGI (UO-31 renal): 12.8 µM; GI50 (NCI/ADR-RES ovarian): 2.33 µM; TGI (NCI/ADR-RES ovarian): 31.7 µM; GI50 (PC-3 prostate): 2.77 µM; TGI (PC-3 prostate): 16.4 µM; GI50 (786-0 renal): 1.98 µM; TGI (786-0 renal): 6.35 µM; GI50 (HCT-15 colon): 0.729 µM; TGI (HCT-15 colon): 10.4 µM; GI50 (UACC-62 melanoma): 0.333 µM; TGI (UACC-62 melanoma): 19.9 µM; GI50 (SF-268 CNS): 4.39 µM; TGI (SF-268 CNS): 17.9 µM; GI50 (KM12 colon): 0.365 µM; TGI (KM12 colon): 3.15 µM; GI50 (COLO 205 colon): 0.377 µM; TGI (COLO 205 colon): 1.72 µM; GI50 (SK-MEL-28 melanoma): 2.95 µM; TGI (SK-MEL-28 melanoma): 15.1 µM; GI50 (SW-620 colon): 0.597 µM; TGI (SW-620 colon): 11 µM; GI50 (M14 melanoma): 0.995 µM; TGI (M14 melanoma): 4.71 µM; GI50 (U251 CNS): 3.95 µM; TGI (U251 CNS): 19.6 µM; GI50 (EKVX NSCLC): 3.52 µM; TGI (EKVX NSCLC): 18.5 µM; GI50 (OVCAR-3 ovarian): 3.11 µM; TGI (OVCAR-3 ovarian): 13.3 µM; GI50 (HCT-116 colon): 1.14 µM; TGI (HCT-116 colon): 11.5 µM; GI50 (NCI-H460 lung): 0.493 µM; TGI (NCI-H460 lung): 10.6 µM; GI50 (MALME-3M melanoma): 4.16 µM; TGI (MALME-3M melanoma): 17 µM; GI50 (SK-MEL-5 melanoma): 0.908 µM; TGI (SK-MEL-5 melanoma): 3.7 µM; GI50 (ACHN renal): 0.321 µM; TGI (ACHN renal): 13.2 µM; GI50 (BT-549 breast): 3.13 µM; TGI (BT-549 breast): 14.2 µM; GI50 (HCC-2998 colon): 1.05 µM; TGI (HCC-2998 colon): 6.78 µM; GI50 (K-562 leukemia): 0.0507 µM; TGI (K-562 leukemia): 1.22 µM; GI50 (CAKI-1 renal): 0.109 µM; TGI (CAKI-1 renal): 3.61 µM; GI50 (LOX IMVI melanoma): 0.228 µM; TGI (LOX IMVI melanoma): 1.75 µM; GI50 (UACC-257 melanoma): 1.27 µM; TGI (UACC-257 melanoma): 10.1 µM; GI50 (SR leukemia): 0.312 µM; TGI (SR leukemia): 4.87 µM; GI50 (SF-539 CNS): 1.39 µM; TGI (SF-539 CNS): 7.19 µM; GI50 (A498 renal): 1.46 µM; TGI (A498 renal): 4.79 µM; GI50 (SK-MEL-2 melanoma): 4.46 µM; TGI (SK-MEL-2 melanoma): 19 µM; GI50 (SNB-19 CNS): 8.94 µM; TGI (SNB-19 CNS): 21.2 µM; GI50 (HS 578T breast): 4.18 µM; TGI (HS 578T breast): 35.1 µM; GI50 (DU-145 prostate): 2.7 µM; TGI (DU-145 prostate): 17.4 µM; GI50 (RXF 393 renal): 1.77 µM; TGI (RXF 393 renal): 4.93 µM
